Measurements published in patent publication US20190307818A1, “NOVEL ANTIMICROBIAL COMPOSITIONS AND METHODS OF USE” (priority 2016, published 2019).

What was measured:
LasR = target: T1, LasR (Pseudomonas aeruginosa, UniProt P25084); assay: 10-point autoinducer dose response on LasR reporter with QS inhibitor (competition); type: cell-based, P. aeruginosa; settings: inhibitor at 100 μM; increasing concentrations of AI
T1 construct: expressed in transfected cells; host or cells: E. coli TOP10 carrying pBAD-A 6xHIS-lasR and pCS26 plasB-luxCDABE
Experimental: FIG. 4. QS inhibitors bind non-competitively to LasR. A 10-point dose response curve with increasing concentrations of autoinducer 3-O—C12-HSL (AI) was generated for a variety of QS small molecule inhibitors. In this figure, curve C12 (filled circle) corresponds to the absence of inhibitor. […] Instead, the inhibitors bind elsewhere on LasR to prevent LasR-dependent transcription.
Using known molecular biology techniques, assays were performed to determine whether binding of the small molecule QS inhibitors and the AIs occurred by a competitive or by another inhibitory mechanism (see, e.g., FIG. 4).
Thus, a 10-point dose response curve with concentrations of AI ranging from 10 pM to 5 nM was generated for a variety of QS small molecule inhibitors. Curve C12 (dotted filled line) corresponds to the absence of inhibitor. […] Instead, the inhibitors bind elsewhere on LasR to prevent LasR-dependent transcription.

[1] = tested on: P. aeruginosa PA14 ΔlasI ΔrhII CRISPR adaptation; assay: CRISPR adaptation (new spacer integration by PCR); type: cell-based; settings: ΔlasI ΔrhII strain; AIs 2 μM 3-O—C12-HSL+10 μM C4-HSL given together; Baicalein 100 μM with AIs; vs DMSO
Experimental: FIG. 3. QS inhibitors block CRISPR adaptation and disable QS-mediated bacterial immunity. A P. aeruginosa PA14 ΔlasI ΔrhII QS deficient strain was transformed with foreign DNA (e.g., a CRISPR-targeted plasmid). A single colony from the transformation was re-streaked on selective media containing either DMSO (as a control), AIs (2 μM 3-O—C12-HSL+10 μM C4-HSL), or AIs and a QS inhibitor (2 μM 3-O—C12-HSL+10 μM C4-HSL+100 μM Baicalein). Single colonies were tested for integration of new inserted spacers (conferring immunity) against the CRISPR-targeted plasmid. In particular, PCR primers were designed to amplify specific genomic regions into which spacers were inserted. Primers complementary to the region upstream of the CRISPR region and to the second spacer region were designed, and PCR amplification was utilized to test for the presence of the newly inserted spacer (a process referred to as adaptation).
A P. aeruginosa PA14 ΔlasI ΔrhII QS deficient strain was transformed with foreign DNA (e.g., a CRISPR-targeted plasmid such as pCR2SP1, as described above). A single colony from the transformation was re-streaked on selective medium, e.g., LB medium containing 50 μg/ml gentamicin and either DMSO (as a control), AIs (2 μM 3-O—C12-HSL+10 μM C4-HSL), or both AIs and a QS inhibitor (2 μM 3-O—C12-HSL+[…] C4-HSL+100 μM Baicalein QS inhibitor) and incubated at 37° C. O/N. Single colonies were tested for integration of new immunity spacers against the CRISPR-targeted plasmid by PCR using iProof High-Fidelity DNA Polymerase (Bio-Rad) and primers CR2SP check F+R upstream of the CRISPR2 region and in the second spacer. Thus, PCR primers were designed to amplify the genomic region in which the new spacer was present. Primers targeting a sequence upstream of the CRISPR-Cas region and targeting the second spacer region were designed, and PCR amplification was utilized to test for the presence of the new inserted spacer (a portion of the plasmid sequence inserted between the CRISPR locus and spacers). […]

[2] = tested on: Wild-type P. aeruginosa pyocyanin production; assay: Pyocyanin virulence factor production; type: cell-based; settings: 100 μM overnight, back diluted, grown 18 hrs with inhibitor
Experimental: FIG. 6. QS inhibitors reduce the level of virulence factor production in P. aeruginosa. The ability of the small molecule inhibitors to reduce virulence factor production by monitoring pyocyanin production was assessed.
The ability of the small molecule QS inhibitors to reduce virulence factor production by monitoring production of pyocyanin as a representative virulence factor was assessed. Wild-type P. aeruginosa was incubated with the indicated molecules at 100 μM overnight, back diluted, and grown for 18 hrs in the presence of QS inhibitor.
By varying the concentration of QS inhibitors, dose dependence curves were generated.

T1 sequence (P25084 whole entry): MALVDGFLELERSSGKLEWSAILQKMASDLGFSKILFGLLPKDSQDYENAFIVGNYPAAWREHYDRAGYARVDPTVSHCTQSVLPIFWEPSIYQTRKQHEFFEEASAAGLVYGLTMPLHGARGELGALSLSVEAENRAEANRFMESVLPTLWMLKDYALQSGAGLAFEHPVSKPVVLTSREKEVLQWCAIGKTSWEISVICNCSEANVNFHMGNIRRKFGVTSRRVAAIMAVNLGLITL

Compound: O=c1cc(-c2ccccc2)oc2cc(O)c(O)c(O)c12 [Molecule 46, Baicalein]
- competition with autoinducer 3-O—C12-HSL for LasR (LasR): did not compete
- CRISPR adaptation (fraction of cells in the colony that adapted) [1]: blocked the positive effects of AIs on CRISPR adaptation
- pyocyanin production [2]: inhibit pyocyanin to varying degrees
